Laboratory results taken from patent US20160122342A1, “ENHANCER OF ZESTE HOMOLOG 2 INHIBITORS” (GLAXOSMITHKLINE INTELLECTUAL PROPERTY (NO.2) LIMITED, priority 2013, published 2016).
Counter-ions that a name gives are not always drawn.

biological target: T1, EZH2 within the PRC2 complex (Homo sapiens, UniProt Q15910); experiment: Assay Protocol 2: EZH2 methyltransferase scintillation proximity assay, biotinylated histone H3 peptide substrate; format: biochemical; details: SPA, 3H-SAM, biotinylated unmethylated histone H3K27 peptide substrate, 5-member PRC2 complex
T1 construct: FLAG; made in house; host or cells: Sf9 cells
Protocol: Compounds contained herein were evaluated for their ability to inhibit the methyltransferase activity of EZH2 within the PRC2 complex. […] The peptides were captured on streptavidin-coated SPA beads and the resulting signal was read on a ViewLux plate reader. • 4. Prepare 10 mM stock of compounds from solid in 100% DMSO. • 5. […] Dispense 10 nL of compound from the dilution plate into reaction plates (Corning, 384-well polystyrene NBS, Cat#3673). Prepare the following solutions: • 7. 1× Base Buffer, 50 mM Tris-HCl, pH 8, 2 mM MgCl2: Per 1 L of base buffer, combine 1 M Tris-HCl, pH 8 (50 mL), 1 M MgCl2 (2 mL), and distilled water (948 mL). • 8. 1× Assay Buffer: Per 10 mL of 1× Assay Buffer, combine 1× Base Buffer (9.96 mL), 1 M DTT (40 uL), and 10% Tween-20 (1 uL) to provide a final concentration of 50 mM Tris-HCl, pH 8, 2 mM MgCl2, 4 mM DTT, 0.001% Tween-20. • 9. 2× Enzyme Solution: […] SPA Bead Solution: Per 1 mL of SPA Bead Solution, combine Streptavidin coated SPA beads (PerkinElmer, Cat# RPNQ0261, 40 mg) and 1× Assay Buffer (1 mL) to provide a working concentration of 40 mg/mL. • 11. 2× Substrate Solution: Per 10 mL of 2× Substrate Solution, combine 40 mg/mL SPA Bead Solution (375 uL), 1 mM biotinylated histone H3K27 peptide (200 uL), 12.5 uM 3H-SAM (240 uL; 1 mCi/mL), 1 mM cold SAM (57 uL), and 1× Assay Buffer (9.13 mL) to provide a final concentration of 0.75 mg/mL SPA Bead Solution, 10 uM biotinylated histone H3K27 peptide, 0.15 uM 3H-SAM (˜12 uCi/mL 3H-SAM), and 2.85 uM cold SAM. • 12. 2.67× Quench Solution: Per 10 mL of 2.67× Quench Solution, combine 1× Assay Buffer (9.73 mL) and 10 mM cold SAM (267 uL) to provide a final concentration of 100 uM cold SAM. • 3. […] Dispense 5 uL/well of 1× Assay Buffer to column 18 (low control reactions). • 11. Dispense 5 uL/well of 2× Substrate Solution to columns 1-24 (note: substrate solution should be mixed to ensure homogeneous bead suspension before dispensing into matrix reservoir). • 12. Dispense 5 uL/well of 2× Enzyme Solution to columns 1-17, 19-24. • 13. Incubate the reaction for 60 min at room temperature. • 5. Dispense 6 uL/well of the 2.67× Quench Solution to columns 1-24. • 6. Seal assay plates and spin for ˜1 min at 500 rpm. • 7. Dark adapt plates in the ViewLux instrument for 15-60 min. • 2. Read the assay plates on the Viewlux Plate Reader utilizing the 613 nm emission filter or clear filter (300 s exposure). Reagent addition can be done manually or with automated liquid handler. Percent inhibition was calculated relative to the DMSO control for each compound concentration and the resulting values were fit using standard IC50 fitting parameters within the ABASE data fitting software package.

T1 sequence (Q15910 whole entry): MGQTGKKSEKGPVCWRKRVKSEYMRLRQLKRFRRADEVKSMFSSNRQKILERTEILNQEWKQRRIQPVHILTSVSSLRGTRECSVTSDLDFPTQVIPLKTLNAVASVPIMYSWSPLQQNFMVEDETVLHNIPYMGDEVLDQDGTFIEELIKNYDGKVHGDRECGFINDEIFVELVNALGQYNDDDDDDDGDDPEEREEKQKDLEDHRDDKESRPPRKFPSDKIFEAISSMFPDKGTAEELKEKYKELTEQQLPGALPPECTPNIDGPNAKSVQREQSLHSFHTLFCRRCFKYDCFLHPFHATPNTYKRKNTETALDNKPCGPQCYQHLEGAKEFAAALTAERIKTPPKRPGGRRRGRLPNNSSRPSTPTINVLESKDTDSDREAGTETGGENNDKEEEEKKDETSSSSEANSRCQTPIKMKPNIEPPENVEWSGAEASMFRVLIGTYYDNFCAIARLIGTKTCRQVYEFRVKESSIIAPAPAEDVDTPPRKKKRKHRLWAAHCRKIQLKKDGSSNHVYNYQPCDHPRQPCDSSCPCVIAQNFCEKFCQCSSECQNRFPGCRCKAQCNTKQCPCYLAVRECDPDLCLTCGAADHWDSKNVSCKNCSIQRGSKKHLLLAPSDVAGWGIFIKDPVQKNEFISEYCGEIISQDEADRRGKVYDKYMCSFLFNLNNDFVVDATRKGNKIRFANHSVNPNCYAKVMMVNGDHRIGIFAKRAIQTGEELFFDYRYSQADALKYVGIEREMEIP
T1 sequence (O75530 whole entry partner): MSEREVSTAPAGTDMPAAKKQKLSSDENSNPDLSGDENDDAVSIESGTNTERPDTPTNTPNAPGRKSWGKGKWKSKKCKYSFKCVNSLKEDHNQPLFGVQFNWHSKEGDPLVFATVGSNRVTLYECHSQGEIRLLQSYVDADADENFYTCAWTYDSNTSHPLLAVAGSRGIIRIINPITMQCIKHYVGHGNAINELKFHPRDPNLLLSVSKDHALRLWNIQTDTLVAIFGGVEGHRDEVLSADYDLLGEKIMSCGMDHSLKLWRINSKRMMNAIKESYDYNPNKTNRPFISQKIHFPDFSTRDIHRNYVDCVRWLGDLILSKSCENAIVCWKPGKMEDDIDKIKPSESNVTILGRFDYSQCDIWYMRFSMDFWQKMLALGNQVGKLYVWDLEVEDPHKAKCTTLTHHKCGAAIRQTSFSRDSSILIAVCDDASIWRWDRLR
T1 sequence (Q15022 whole entry partner): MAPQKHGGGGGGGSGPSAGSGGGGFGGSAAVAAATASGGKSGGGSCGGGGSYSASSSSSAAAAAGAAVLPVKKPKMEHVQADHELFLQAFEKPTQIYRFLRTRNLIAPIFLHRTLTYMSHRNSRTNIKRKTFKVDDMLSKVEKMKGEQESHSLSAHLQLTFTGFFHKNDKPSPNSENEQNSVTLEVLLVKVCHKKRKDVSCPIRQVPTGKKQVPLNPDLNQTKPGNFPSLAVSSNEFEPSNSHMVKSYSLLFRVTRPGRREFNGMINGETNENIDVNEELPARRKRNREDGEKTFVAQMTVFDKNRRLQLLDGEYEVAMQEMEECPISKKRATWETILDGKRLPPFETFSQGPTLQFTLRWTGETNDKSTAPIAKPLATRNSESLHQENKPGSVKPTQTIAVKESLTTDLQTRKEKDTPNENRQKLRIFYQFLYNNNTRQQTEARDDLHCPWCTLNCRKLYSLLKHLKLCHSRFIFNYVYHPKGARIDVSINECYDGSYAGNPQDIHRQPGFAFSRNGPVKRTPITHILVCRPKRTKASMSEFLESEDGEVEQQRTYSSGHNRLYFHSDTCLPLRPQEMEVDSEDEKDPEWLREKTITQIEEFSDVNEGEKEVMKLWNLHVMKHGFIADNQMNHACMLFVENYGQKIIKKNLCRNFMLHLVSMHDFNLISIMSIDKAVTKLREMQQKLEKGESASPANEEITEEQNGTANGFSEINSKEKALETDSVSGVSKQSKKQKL
T1 sequence (Q09028 whole entry partner): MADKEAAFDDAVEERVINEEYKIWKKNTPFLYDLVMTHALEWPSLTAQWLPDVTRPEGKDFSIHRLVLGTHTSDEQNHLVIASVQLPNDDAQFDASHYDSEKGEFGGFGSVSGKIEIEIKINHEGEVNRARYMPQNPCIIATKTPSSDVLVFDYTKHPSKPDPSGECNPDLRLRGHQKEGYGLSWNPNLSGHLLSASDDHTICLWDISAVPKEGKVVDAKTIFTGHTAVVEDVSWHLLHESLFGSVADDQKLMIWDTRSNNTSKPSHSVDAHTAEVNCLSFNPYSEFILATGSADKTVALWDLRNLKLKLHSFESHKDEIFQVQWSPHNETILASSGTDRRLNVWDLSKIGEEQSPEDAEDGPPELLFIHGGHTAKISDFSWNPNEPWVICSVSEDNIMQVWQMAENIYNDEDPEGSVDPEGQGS
T1 sequence (Q6ZN18 whole entry partner): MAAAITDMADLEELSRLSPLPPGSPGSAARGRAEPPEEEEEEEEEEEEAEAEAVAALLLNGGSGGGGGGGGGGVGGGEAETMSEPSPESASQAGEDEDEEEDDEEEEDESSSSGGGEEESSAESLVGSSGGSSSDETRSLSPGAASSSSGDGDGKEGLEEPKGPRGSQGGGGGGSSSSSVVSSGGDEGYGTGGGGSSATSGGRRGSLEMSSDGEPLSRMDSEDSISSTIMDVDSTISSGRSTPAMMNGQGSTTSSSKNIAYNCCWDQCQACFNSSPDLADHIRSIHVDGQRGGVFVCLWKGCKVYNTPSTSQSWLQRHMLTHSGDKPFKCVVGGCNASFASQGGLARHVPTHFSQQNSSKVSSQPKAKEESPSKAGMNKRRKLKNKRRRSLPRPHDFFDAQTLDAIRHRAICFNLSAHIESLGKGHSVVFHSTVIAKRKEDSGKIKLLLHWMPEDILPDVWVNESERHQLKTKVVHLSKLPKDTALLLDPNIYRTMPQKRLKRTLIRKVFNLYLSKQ

Row | IC50 | Structure (SMILES)
1 | 158 nM | CCN(c1cccc2c1C/C=C/CCc1cc(C)[nH]c(=O)c1CNC2=O)C1CCCNCC1 (stereo not drawn) [Example 77, (E)-10-(azepan-4-yl(ethyl)amino)-3-methyl-5,6,15,16-tetrahydrobenzo[c]pyrido[4,3-j][1]azacyclododecine-1,14(2H,9H)-dione]
2 | 158 nM | CCN(c1cccc2c1C/C=C/CCc1cc(C)[nH]c(=O)c1CNC2=O)C1CC2(CCN(C)CC2)C1 [Example 69, (E)-10-(ethyl(7-methyl-7-azaspiro[3.5]nonan-2-yl)amino)-3-methyl-5,6,15,16-tetrahydrobenzo[c]pyrido[4,3-j][1]azacyclododecine-1,14(2H,9H)-dione]
3 | 158 nM | CCN(c1cccc2c1C/C=C/CCc1cc(C)[nH]c(=O)c1CNC2=O)[C@H]1CC[C@@H](NC)CC1 [Example 74, (E)-10-(ethyl(cis-4-(methylamino)cyclohexyl)amino)-3-methyl-5,6,15,16-tetrahydrobenzo[c]pyrido[4,3-j][1]azacyclododecine-1,14(2H,9H)-dione formic acid salt]
4 | 126 nM | CCN(c1cccc2c1C/C=C/CCc1cc(C)[nH]c(=O)c1CNC2=O)C1CC2(CCNCC2)C1 [Example 68, (E)-10-(ethyl(7-azaspiro[3.5]nonan-2-yl)amino)-3-methyl-5,6,15,16-tetrahydrobenzo[c]pyrido[4,3-j][1]azacyclododecine-1,14(2H,9H)-dione]
5 | 316 nM | CCN(c1cccc2c1C/C=C/CCc1cc(C)[nH]c(=O)c1CNC2=O)C1CCN(N(C)C)CC1 [Example 65, (E)-10-((1-(dimethylamino)piperidin-4-yl)(ethyl)amino)-3-methyl-5,6,15,16-tetrahydrobenzo[c]pyrido[4,3-j][1]azacyclododecine-1,14(2H,9H)-dione]
6 | 126 nM | CCN(c1cccc2c1C/C=C/CCc1cc(C)[nH]c(=O)c1CNC2=O)[C@H]1CC[C@H](N2CC(F)C2)CC1 [Example 76, (E)-10-(ethyl(trans-4-(3-fluoroazetidin-1-yl)cyclohexyl)amino)-3-methyl-5,6,15,16-tetrahydrobenzo[c]pyrido[4,3-j][1]azacyclododecine-1,14(2H,9H)-dione]
7 | 200 nM | Cc1cc2c(c(=O)[nH]1)CNC(=O)c1cccc(O[C@H]3CC[C@H](N(C)C)CC3)c1C/C=C/CC2 [Example 84, (E)-10-((trans-4-(dimethylamino)cyclohexyl)oxy)-3-methyl-5,6,15,16-tetrahydrobenzo[c]pyrido[4,3-j][1]azacyclododecine-1,14(2H,9H)-dione]
8 | 158 nM | CCN(c1cccc2c1C/C=C\Cc1cc(C)[nH]c(=O)c1CNC2=O)[C@H]1CC[C@H](N(C)C)CC1 [Example 61, (Z)-9-((trans-4-(dimethylamino)cyclohexyl)(ethyl)amino)-3-methyl-5,8,14,15-tetrahydro-1H-benzo[c]pyrido[4,3-i][1]azacycloundecine-1,13(2H)-dione]
9 | 126 nM | CCN(c1cccc2c1C/C=C/CCc1cc(C)[nH]c(=O)c1CNC2=O)[C@H]1CC[C@H](NC)CC1 [Example 73, (E)-10-(ethyl(trans-4-(methylamino)cyclohexyl)amino)-3-methyl-5,6,15,16-tetrahydrobenzo[c]pyrido[4,3-j][1]azacyclododecine-1,14(2H,9H)-dione formic acid salt]
10 | 158 nM | CCN(c1cccc2c1C/C=C/CCc1cc(C)[nH]c(=O)c1CNC2=O)[C@H]1CC[C@H](NCC(F)(F)F)CC1 [Example 58, (E)-10-(ethyl(trans-4-((2,2,2-trifluoroethyl)amino)cyclohexyl)amino)-3-methyl-5,6,15,16-tetrahydrobenzo[c]pyrido[4,3-j][1]azacyclododecine-1,14(2H,9H)-dione]
11 | 316 nM | CCN(c1cccc2c1C/C=C/CCc1cc(C)[nH]c(=O)c1CNC2=O)[C@H]1CC[C@H](N(C)CC(F)(F)F)CC1 [Example 59, (E)-10-(ethyl(trans-4-(methyl(2,2,2-trifluoroethyl)amino)cyclohexyl)amino)-3-methyl-5,6,15,16-tetrahydrobenzo[c]pyrido[4,3-j][1]azacyclododecine-1,14(2H,9H)-dione]
12 | 316 nM | CCN(c1cccc2c1C/C=C/CCc1cc(C)[nH]c(=O)c1CNC2=O)C1CCN(Cc2cccc(C)n2)CC1 [Example 48, (E)-10-(ethyl(1-((6-methylpyridin-2-yl)methyl)piperidin-4-yl)amino)-3-methyl-5,6,15,16-tetrahydrobenzo[c]pyrido[4,3-j][1]azacyclododecine-1,14(2H,9H)-dione]
13 | 251 nM | CCN(c1nccc2c1C/C=C/CCc1cc(C)[nH]c(=O)c1CNC2=O)C1CCOCC1 [Example 63, (E)-10-(ethyl(tetrahydro-2H-pyran-4-yl)amino)-3-methyl-5,6,15,16-tetrahydrodipyrido[3,4-c:3′,4′-j][1]azacyclododecine-1,14(2H,9H)-dione]
14 | 200 nM | CCN(c1cccc2c1C/C=C/CCc1cc(C)[nH]c(=O)c1CNC2=O)C1CCN(CC(F)(F)F)CC1 [Example 47, (E)-10-(ethyl(1-(2,2,2-trifluoroethyl)piperidin-4-yl)amino)-3-methyl-5,6,15,16-tetrahydrobenzo[c]pyrido[4,3-j][1]azacyclododecine-1,14(2H,9H)-dione]
15 | 251 nM | CCN(c1cccc2c1C/C=C/CCc1cc(C)[nH]c(=O)c1CNC2=O)C1CCC2(CC1)CNC2 [Example 66, (E)-10-(ethyl(2-azaspiro[3.5]nonan-7-yl)amino)-3-methyl-5,6,15,16-tetrahydrobenzo[c]pyrido[4,3-j][1]azacyclododecine-1,14(2H,9H)-dione]
16 | 126 nM | CCN(c1cccc2c1C/C=C/CCc1cc(C)[nH]c(=O)c1CNC2=O)[C@H]1CC[C@H](O)CC1 [Example 79, (E)-10-(ethyl(trans-4-hydroxycyclohexyl)amino)-3-methyl-5,6,15,16-tetrahydrobenzo[c]pyrido[4,3-j][1]azacyclododecine-1,14(2H,9H)-dione]
17 | 158 nM | CCN(c1cccc2c1C/C=C/CCc1cc(C)[nH]c(=O)c1CNC2=O)[C@H]1CC[C@@H](O)CC1 [Example 78, (E)-10-(ethyl(cis-4-hydroxycyclohexyl)amino)-3-methyl-5,6,15,16-tetrahydrobenzo[c]pyrido[4,3-j][1]azacyclododecine-1,14(2H,9H)-dione]
18 | 126 nM | CCN(c1cccc2c1C/C=C/CCc1cc(C)[nH]c(=O)c1CNC2=O)C1CC2(CC(N)C2)C1 (stereo not drawn) [Example 70, (E)-10-((6-aminospiro[3.3]heptan-2-yl)(ethyl)amino)-3-methyl-5,6,15,16-tetrahydrobenzo[c]pyrido[4,3-j][1]azacyclododecine-1,14(2H,9H)-dione]
19 | 126 nM | CCN(c1cccc2c1C/C=C/CCc1cc(C)[nH]c(=O)c1CNC2=O)[C@H]1CC[C@H](NCC(F)F)CC1 [Example 56, (E)-10-((trans-4-((2,2-difluoroethyl)amino)cyclohexyl)(ethyl)amino)-3-methyl-5,6,15,16-tetrahydrobenzo[c]pyrido[4,3-j][1]azacyclododecine-1,14(2H,9H)-dione]
20 | 251 nM | CCN(c1cccc2c1C/C=C/CCc1cc(C)[nH]c(=O)c1CNC2=O)C1CC2(CC(N(C)C)C2)C1 (stereo not drawn) [Example 71, (E)-10-((6-(dimethylamino)spiro[3.3]heptan-2-yl)(ethyl)amino)-3-methyl-5,6,15,16-tetrahydrobenzo[c]pyrido[4,3-j][1]azacyclododecine-1,14(2H,9H)-dione]
21 | 251 nM | CCOC(=O)C(C)(C)N1CCC(N(CC)c2cccc3c2C/C=C/CCc2cc(C)[nH]c(=O)c2CNC3=O)CC1 [Example 46, (E)-ethyl 2-(4-(ethyl(3-methyl-1,14-dioxo-1,2,5,6,9,14,15,16-octahydrobenzo[c]pyrido[4,3-j][1]azacyclododecin-10-yl)amino)piperidin-1-yl)-2-methylpropanoate]
